The results in this text go back to US9403774B2, “Guanidine and amine substituted tetrahydroisoquinoline compounds as factor xia inhibitors” (BRISTOL-MYERS SQUIBB COMPANY, priority 2012, dated 2016).

SMILES strings stand for the structures. Counter-ions that a name gives are not always drawn.

A word on the Ki: it is the equilibrium dissociation constant of an inhibitor or competing ligand from its target.

Sequence of purified human Factor XIa (P03951 388-625): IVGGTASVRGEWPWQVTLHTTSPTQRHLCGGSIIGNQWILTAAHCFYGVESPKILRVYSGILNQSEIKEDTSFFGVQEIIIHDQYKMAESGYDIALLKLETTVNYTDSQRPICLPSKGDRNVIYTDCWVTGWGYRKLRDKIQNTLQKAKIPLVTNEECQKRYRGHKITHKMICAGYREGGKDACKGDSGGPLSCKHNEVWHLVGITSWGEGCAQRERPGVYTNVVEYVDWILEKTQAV
Sequence of purified human Factor XIa (P03951 19-387 partner): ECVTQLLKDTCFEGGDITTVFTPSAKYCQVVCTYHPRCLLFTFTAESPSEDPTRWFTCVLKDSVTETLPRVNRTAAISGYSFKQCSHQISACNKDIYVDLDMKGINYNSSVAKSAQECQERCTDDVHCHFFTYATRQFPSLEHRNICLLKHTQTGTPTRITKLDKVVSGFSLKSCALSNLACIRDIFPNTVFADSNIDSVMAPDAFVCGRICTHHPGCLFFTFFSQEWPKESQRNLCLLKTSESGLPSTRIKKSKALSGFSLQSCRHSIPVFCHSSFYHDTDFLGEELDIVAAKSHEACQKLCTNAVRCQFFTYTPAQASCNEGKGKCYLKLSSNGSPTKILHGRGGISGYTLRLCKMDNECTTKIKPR

The assay has as its target purified human Factor XIa (Homo sapiens (Human), UniProt P03951). Kind of assay: Factor XIa assay (chromogenic substrate S-2366 hydrolysis). The format is biochemical. Conditions: substrate S-2366, pH 7.4. The protocol:
The effectiveness of compounds of the present invention as inhibitors of the coagulation factors XIa, VIIa, IXa, Xa, XIIa, plasma kallikrein or thrombin, can be determined using a relevant purified serine protease, respectively, and an appropriate synthetic substrate. The rate of hydrolysis of the chromogenic or fluorogenic substrate by the relevant serine protease was measured both in the absence and presence of compounds of the present invention. […] A decrease in the rate of absorbance or fluorescence change in the presence of inhibitor is indicative of enzyme inhibition. Such methods are known to one skilled in the art. The results of this assay are expressed as the inhibitory constant, Ki.
Factor XIa determinations were made in 50 mM HEPES buffer at pH 7.4 containing 145 mM NaCl, 5 mM KCl, and 0.1% PEG 8000 (polyethylene glycol; JT Baker or Fisher Scientific). Determinations were made using purified human Factor XIa at a final concentration of 75-200 pM (Haematologic Technologies) and the synthetic substrate S-2366 (pyroGlu-Pro-Arg-pNA; CHROMOGENIX® or AnaSpec) at a concentration of 0.0002-0.001 M.
The Michaelis constant, Km, for substrate hydrolysis by each protease, was determined at 25° C. using the method of Lineweaver and Burk. Values of Ki were determined by allowing the protease to react with the substrate in the presence of the inhibitor. Reactions were allowed to go for periods of 20-180 minutes (depending on the protease) and the velocities (rate of absorbance or fluorescence change versus time) were measured. The following relationships were used to calculate Ki values: (vo−vs)/vs=I/(Ki(1+S/Km)) for a competitive inhibitor with one binding site; or vs/vo=A+((B−A)/1+((IC50/(I)n))); and Ki═IC50/(1+S/Km) for a competitive inhibitor where: […]
With `CC1(C)Cc2c(-c3cc4ccccc4s3)cccc2C(C(=O)Nc2ccc(C(=O)O)cc2)N1C(=O)[C@H]1CC[C@H](CN)CC1` (stereo partly drawn) [Example 20], the Ki came out at 782 nM.
For `CC1(C)Cc2c(-c3ccc4ncccc4c3)cccc2C(C(=O)Nc2ccc(C(=O)O)cc2)N1C(=O)[C@H]1CC[C@H](CN)CC1` (stereo partly drawn) [Example 26] the value was 48.3 nM; for `COC1CCN(c2cccc3c2CCN(C(=O)c2ccc(N)cc2)C3C(=O)Nc2ccc(C(=O)O)cc2)CC1` (stereo not drawn) [Example 1, 4-(2-(4-aminobenzoyl)-5-(4-methoxypiperidin-1-yl)-1,2,3,4-tetrahydroisoquinoline-1-carboxamido)benzoic acid, bis-TFA salt], 542 nM; for `CNC(=O)c1ccc(-c2cccc3c2CCN(C(=O)[C@H]2CC[C@H](CN)CC2)C3C(=O)Nc2ccc(C(=O)O)cc2)cc1` (stereo partly drawn) [Example 4, 4-(2-((1r,4r)-4-(aminomethyl)cyclohexanecarbonyl)-5-(4-(methylcarbamoyl)phenyl)-1,2,3,4-tetrahydroisoquinoline-1-carboxamido)benzoic acid, TFA Salt], less than 5 nM.
For `NC[C@H]1CC[C@H](C(=O)N2CCc3ccccc3[C@H]2C(=O)Nc2ccc(C(=O)O)cc2)CC1` [Example 32, 4-((S)-2-((1r,4S)-4-(aminomethyl)cyclohexanecarbonyl)-1,2,3,4-tetrahydroisoquinoline-1-carboxamido)benzoic acid, TFA salt] the value was 84.6 nM; for `CC1(C)Cc2c(-c3ccc4c(c3)OCO4)cccc2C(C(=O)Nc2ccc(C(=O)O)cc2)N1C(=O)[C@H]1CC[C@H](CN)CC1` (stereo partly drawn) [Example 16], 166 nM.
